From patent US10071133B2, “Method for destroying exosomes, kit for destroying exosomes, and method for isolating exosomes derived from normal cells” (priority 2015, dated 2018)

What was measured:
[1] = system: exosome derived from human prostate cancer cells (PC3ML); assay: Extraction of microRNA (miR-21) from exosome derived from prostate cancer cells, real-time PCR; assay type: biochemical; settings: 100 μM peptide, 1×10^11 particles/mL PC3ML exosomes, 0.4 U/μL RNase inhibitor, 37° C., 24 hours; without peptide 3×10^−14M
Experimental: A cell suspension of cell line PC3ML derived from human prostate cancer cells (provided by the National Cancer Center Research Institute) was seeded in a dish containing RPMI 1640 medium (manufactured by Thermo Fisher Scientific Inc.) containing 10% fetal bovine serum. Subsequently, the cell line was grown at 37° C. under the condition that CO2 concentration was set to 5 volume % using a CO2 incubator, and then the medium was replaced with Advanced RPMI 1640 medium (manufactured by Thermo Fisher Scientific Inc.), followed by culturing for 48 hours, and the culture solution containing exosomes was obtained. This culture solution was centrifuged at 2,000 G for 10 minutes to remove the precipitate, followed by centrifugation at 110,000 G for 70 minutes to precipitate the exosomes, and therefore an exosome fraction was recovered. The recovered exosome fraction was suspended in a phosphate buffered saline (PBS) and then stored at 4° C. Storage samples were lightly suspended with a vortex mixer (vibration mixer) before use. […]
The reverse transcription PCR solution obtained by the above described method was processed and by comparing the number of cycles on a calibration curve of microRNA using Taqman Assay primer (manufactured by Thermo Fisher Scientific Inc., Taqman microRNA Assays, Taqman Assay primer, and hsa-mir-21 or hsa-mir-16) and Real-Time PCR Master Mixes (manufactured by Thermo Fisher Scientific Inc., TaqMan Universal PCR Master Mix II, w/UNG) with StepOnePlus Real-Time PCR System, MiR-21 or miR-16 was quantified. […]
The amount of microRNA (miR-21) contained in the recovered eluate was quantified by the above described real-time PCR method. […] In addition, the destructive activity of the antimicrobial peptide used was evaluated on the basis of the following criteria based on the quantitative result of the concentration of microRNA (miR-21) performed by the real-time PCR method. […]

[2] = system: exosome fraction B derived from human breast cancer cells (MDA-MB-231-luc-D3H2LN); assay: Extraction of microRNA (miR-21) from exosomes derived from human breast cancer cells, real-time PCR; assay type: biochemical; settings: 100 μM peptide, 1×10^11 particles/mL exosomes, 0.4 U/μL RNase inhibitor, 37° C., 24 hours; without peptide 8×10^−14M
Experimental: (§1) A cell suspension of cell line MDA-MB-231-luc-D3H2LN derived from human breast cancer (=MM231-luc-D3H2LN, provided by the National Cancer Center Research Institute) was seeded in a dish containing RPMI 1640 medium (manufactured by Thermo Fisher Scientific Inc.) containing 10% fetal bovine serum. Subsequently, the cell line was grown at 37° C. under the condition that CO2 concentration was set to 5 volume % using a CO2 incubator, and then the medium was replaced with Advanced RPMI 1640 medium (manufactured by Thermo Fisher Scientific Inc.), followed by culturing for 48 hours, and therefore the culture solution containing exosomes was obtained. This culture solution was centrifuged at 2,000 G for 10 minutes to remove the precipitate, followed by centrifugation at 110,000 G for 70 minutes to precipitate the exosomes, and therefore an exosome fraction B was recovered. The recovered exosome fraction B was suspended in a phosphate buffered saline (PBS) and then stored at 4° C. Storage samples were lightly suspended with a vortex mixer (vibration mixer) before use.
(§2) MicroRNA (miR-21 or miR-16) in the reaction solution was subjected to reverse transcription PCR using reverse transcription primers (manufactured by Thermo Fisher Scientific Inc., Taqman microRNA Assays, RT primers, and hsa-mir-21 or hsa-mir-16) and a reverse transcriptase (manufactured by Thermo Fisher Scientific Inc., Taqman microRNA RT kit).
(§3) The reverse transcription PCR solution obtained by the above described method was processed and by comparing the number of cycles on a calibration curve of microRNA using Taqman Assay primer (manufactured by Thermo Fisher Scientific Inc., Taqman microRNA Assays, Taqman Assay primer, and hsa-mir-21 or hsa-mir-16) and Real-Time PCR Master Mixes (manufactured by Thermo Fisher Scientific Inc., TaqMan Universal PCR Master Mix II, w/UNG) with StepOnePlus Real-Time PCR System, MiR-21 or miR-16 was quantified. The calibration curve of microRNA was created using synthetic miR-21 (manufactured by Sigma-Aldrich Co. LLC.) or synthetic miR-16 (manufactured by Sigma-Aldrich Co. LLC.).
10 μL of the exosome fraction was prepared such that PBS contains 1×10^11 particles/mL of the exosome fraction B derived from human breast cancer cells, various antimicrobial peptides shown in the following Table 2 adjusted to 100 μM, and 0.4 U/μL of RNase inhibitor (manufactured by Toyobo Co., Ltd.), followed by incubation by being left to stand at 37° C. for 24 hours.
MicroRNA eluted into the solution was purified and recovered from the incubated solution of Example 10 above and Comparative Example 6 above by the following method.
First, 160 μL of PBS was added to the reaction solution, and then the solution was added to a centrifugal filter (manufactured by Millipore Corporation, Amicon Ultra 0.5 mL, 100K filter) and centrifuged at 14,000 G for 2 minutes. Subsequently, 100 μL of the centrifuged filtrate was recovered and introduced into a 1.5 mL tube. Next, 350 μL of RLT buffer (manufactured by QIAGEN, attached with RNeasy mini kit) and 675 μL of ethanol were added and mixed in the 1.5 mL tube. The obtained mixture was separated into two parts, and each of the separates was added onto a spin column (manufactured by QIAGEN, attached with RNeasy mini kit) followed by centrifugation at 8,000 G for 15 seconds, and the entire amount of the mixture was passed through the spin column. Thereafter, 500 μL of RPE buffer (manufactured by QIAGEN, attached with RNeasy mini kit) was added thereto and centrifuged at 8,000 G for 15 seconds. Furthermore, 500 μL of the RPE buffer was added to the spin column once more and centrifuged at 8,000 G for 15 seconds. Thereafter, the spin column was centrifuged at 14,000 G for 1 minute to remove the residual RPE buffer. Next, 30 μL of RNase free water (manufactured by QIAGEN, attached with RNeasy mini kit) was added to the spin column, left for 1 minute, and then centrifuged at 14,000 G for 1 minute, and the eluate obtained thereby was recovered. […]

[3] = system: exosomes derived from cancer cells; assay: Preliminary examination of destructive ability of anticancer peptides against exosomes derived from cancer cells; assay type: biochemical
Description: Specifically, the present inventors have come to realize the following knowledge.

[4] = system: exosome fraction A prepared from the cell line MM231-luc-D3H2LN derived from human breast cancer cells; assay: Destruction of exosomes in PBS, number of exosomes by nanoparticle analyzer (NanoSight LM10); assay type: biochemical; settings: 50 μM peptide, 1.36×10^10 particles/mL exosomes in PBS, 25° C., 48 hours
Description: Storage samples were lightly suspended with a vortex mixer (vibration mixer) before use.

[5] = system: exosome fraction B derived from human breast cancer cells versus exosome fraction derived from human mammary gland cells (MCF-10A, normal cells); assay: Selectivity: miR-16 ratio, breast cancer exosomes versus mammary gland normal cell exosomes (Formula 1); assay type: biochemical; settings: for mir-16 ratio: Formula 1, cancer/normal (MCF-10A), 100 μM peptide, 37° C., 24 hours; for Selectivity: from miR-16 ratio versus Comparative Example 8, breast cancer vs MCF-10A exosomes
Experimental: as §1
A cell suspension of cell line MCF 10A derived from human mammary epithelial cells (provided by the National Cancer Center Research Institute) was seeded in a dish containing Mammary Epithelium Cell Basal Medium (manufactured by Lonza). Subsequently, the cell line was grown at 37° C. under the condition that CO2 concentration was set to 5 volume % using a CO2 incubator, and then the medium was replaced with a fresh medium, followed by culturing for 48 hours, and the culture solution containing exosomes was obtained. This culture solution was centrifuged at 2,000 G for 10 minutes to remove the precipitate, followed by centrifugation at 110,000 G for 70 minutes to precipitate the exosomes, and an exosome fraction was recovered. The recovered exosome fraction was suspended in a phosphate buffered saline (PBS) and then stored at 4° C. Storage samples were lightly suspended with a vortex mixer (vibration mixer) before use.
as §2, §3
10 μL of the exosome fraction was prepared such that PBS contains 1×10^11 particles/mL of the exosome fraction B derived from human breast cancer cells, various antimicrobial peptides shown in the following Table 4 adjusted to 100 μM, and 0.4 U/μL of RNase inhibitor (manufactured by Toyobo Co., Ltd.), followed by incubation by being left to stand at 37° C. for 24 hours.
Thereafter, the eluted MicroRNA (miR-16) was purified and recovered from the incubated solution by the same method as the above described method for extraction from the incubated solution of Examples 10 and 11 above and Comparative Examples 6 and 7 above. […]

[6] = system: exosomes derived from human breast cancer cells (MM231-luc-D3H2LN) in human peripheral blood sample; settings: […]10^10 particles/mL exosomes, 100 μM magainin 2 or 8% phenol, 25° C., 24 hours
Experimental: The exosome fraction A prepared from the cell line MM231-luc-D3H2LN derived from human breast cancer cells was added to a peripheral blood sample collected from a healthy person with no cancer (hereinafter will be also referred to as human peripheral blood sample) so as to become an exosome concentration of an actual cancer patient, and thereby an artificial sample of a human peripheral blood of the cancer patient was produced. The human peripheral blood sample was obtained after procurement of the patient informed consent according to the Declaration of Helsinki, similarly to the method described in Japanese Unexamined patent publication No. 2013-198483, for example. Blood was drawn using a blood collection tube containing an anticoagulant.
Using a part of the incubated solution, the exosomes were purified with Exo-Flow32 CD9 IP Kit (manufactured by SBI), and then the number of exosomes in the solution was measured using the nanoparticle analyzer (NanoSight LM10; manufactured by NanoSight, Ltd.). […] In addition, a part of the incubated solution was subjected to the serum component protein electrophoresis.

Compound: Polybia-MPI
- Destructive activity (concentration of microRNA miR-21 in eluate) [1]: A (the concentration of microRNA is 10×10^−14M or more)
- Destructive activity (concentration of microRNA miR-21 in eluate) [2]: B (the concentration of microRNA is 10×10^−14M to 50×10^−14M)

Compound: PR-39 (RRRPRPPYLPRPRPPPFFPPRLPPRIPPGFPPRFPPRFP)
- destructive ability against the exosomes derived from cancer cells [3]: no or a low level
- Destructive activity (concentration of microRNA miR-21 in eluate) [2]: D (the concentration of microRNA is less than 10×10^−14M)

Compound: Lactoferricin [Example 4]
- number of exosomes in the solution [4]: 7.47×10^9 particles/mL

Compound: Maximin 1
- Destructive activity (concentration of microRNA miR-21 in eluate) [2]: B (the concentration of microRNA is 10×10^−14M to 50×10^−14M)
- mir-16 ratio [5]: 22
- Selectivity [5]: B (evaluated as “B” in a case where the calculated miR-16 value was higher than the miR-16 ratio of Comparative Example 8)

Compound: LL-37
- number of exosomes in the solution [4]: 1.09×10^9 particles/mL
- Destructive activity (concentration of microRNA miR-21 in eluate) [2]: A (the concentration of microRNA is 50×10^−14M or more)
- mir-16 ratio [5]: 18
- Selectivity [5]: B (evaluated as “B” in a case where the calculated miR-16 value was higher than the miR-16 ratio of Comparative Example 8)

Compound: A6K: amino acid sequence AAAAAAK (Ac-AAAAAAK-NH2)
- destructive ability against the exosomes derived from cancer cells [3]: no or a low level
- Destructive activity (concentration of microRNA miR-21 in eluate) [2]: D (the concentration of microRNA is less than 10×10^−14M)

Compound: Hepcidin TH2-3
- destructive ability against the exosomes derived from cancer cells [3]: no or a low level
- Destructive activity (concentration of microRNA miR-21 in eluate) [2]: D (the concentration of microRNA is less than 10×10^−14M)

Compound: Oc1ccccc1 [Comparative Example 2, phenol, reference compound]
- exosome amount compared to Comparative Example 3 (no additive) [6]: decreased

Compound: CC[C@H](C)[C@H](NC(=O)CN)C(=O)NCC(=O)N[C@@H](C)C(=O)N[C@H](C(=O)N[C@@H](CC(C)C)C(=O)N[C@@H](CCCCN)C(=O)N[C@H](C(=O)N[C@@H](CC(C)C)C(=O)N[C@H](C(=O)N[C@H](C(=O)NCC(=O)N[C@@H](CC(C)C)C(=O)N1CCC[C@H]1C(=O)N[C@@H](C)C(=O)N[C@@H](CC(C)C)C(=O)N[C@H](C(=O)N[C@@H](CO)C(=O)N[C@@H](Cc1c[nH]c2ccccc12)C(=O)N[C@H](C(=O)N[C@@H](CCCCN)C(=O)N[C@@H](CCCNC(=N)N)C(=O)N[C@@H](CCCCN)C(=O)N[C@@H](CCCNC(=N)N)C(=O)N[C@@H](CCC(N)=O)C(=O)N[C@@H](CCC(N)=O)C(N)=O)[C@@H](C)CC)[C@@H](C)CC)[C@@H](C)O)[C@@H](C)O)C(C)C)C(C)C [Melittin]
- Destructive activity (concentration of microRNA miR-21 in eluate) [2]: A (the concentration of microRNA is 50×10^−14M or more)
- mir-16 ratio [5]: 42
- Selectivity [5]: B (evaluated as “B” in a case where the calculated miR-16 value was higher than the miR-16 ratio of Comparative Example 8)

Compound: K6L9 (LKLLKKLLKKLLKLL)
- Destructive activity (concentration of microRNA miR-21 in eluate) [1]: A (the concentration of microRNA is 10×10^−14M or more)
- Destructive activity (concentration of microRNA miR-21 in eluate) [2]: B (the concentration of microRNA is 10×10^−14M to 50×10^−14M)

Compound: Nisin [Example 3]
- number of exosomes in the solution [4]: 4.51×10^9 particles/mL
